In ChEMBL document CHEMBL5233233, “Histone deacetylase 3 (HDAC3) inhibitors as anticancer agents: A review” (Eur J Med Chem, 2020):
Each block holds one molecule with its values, some of them ahead of it.

How the values were obtained:
Histone deacetylase 1 [1] = molecular target: T1, Histone deacetylase 1 (Homo sapiens, UniProt Q13547); assay: Inhibition of human HDAC1 using fluorogenic as substrate measured after 30 mins by fluorescence based analysis
Histone deacetylase = assay: Inhibition of human HDAC using human HeLa cell nuclear extract measured after 60 mins by fluorescence assay; type: subcellular, Nucleus
Histone deacetylase 3 [2] = molecular target: T2, Histone deacetylase 3 (Homo sapiens, UniProt O15379); assay: Inhibition of human HDAC3 using fluorogenic as substrate measured after 30 mins by fluorescence based analysis
T2 sequence (O15379 whole entry): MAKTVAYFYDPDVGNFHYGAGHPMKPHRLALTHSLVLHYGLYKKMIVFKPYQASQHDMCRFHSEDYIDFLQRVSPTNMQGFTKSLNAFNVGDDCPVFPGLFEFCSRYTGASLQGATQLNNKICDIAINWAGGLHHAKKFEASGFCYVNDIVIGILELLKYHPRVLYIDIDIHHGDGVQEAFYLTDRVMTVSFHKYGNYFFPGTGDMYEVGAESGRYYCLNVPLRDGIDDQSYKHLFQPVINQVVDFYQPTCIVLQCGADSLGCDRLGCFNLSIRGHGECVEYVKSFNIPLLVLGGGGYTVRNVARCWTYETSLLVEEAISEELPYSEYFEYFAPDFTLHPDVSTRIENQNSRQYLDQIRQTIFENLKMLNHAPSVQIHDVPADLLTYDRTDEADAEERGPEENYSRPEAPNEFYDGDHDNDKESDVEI

Histone deacetylase 1 [3] = molecular target: T1, Histone deacetylase 1; assay: Inhibition of HDAC1 (unknown origin)
Histone deacetylase 2 [4] = molecular target: T3, Histone deacetylase 2 (Homo sapiens, UniProt Q92769); assay: Inhibition of HDAC2 (unknown origin)
T3 sequence (Q92769 whole entry): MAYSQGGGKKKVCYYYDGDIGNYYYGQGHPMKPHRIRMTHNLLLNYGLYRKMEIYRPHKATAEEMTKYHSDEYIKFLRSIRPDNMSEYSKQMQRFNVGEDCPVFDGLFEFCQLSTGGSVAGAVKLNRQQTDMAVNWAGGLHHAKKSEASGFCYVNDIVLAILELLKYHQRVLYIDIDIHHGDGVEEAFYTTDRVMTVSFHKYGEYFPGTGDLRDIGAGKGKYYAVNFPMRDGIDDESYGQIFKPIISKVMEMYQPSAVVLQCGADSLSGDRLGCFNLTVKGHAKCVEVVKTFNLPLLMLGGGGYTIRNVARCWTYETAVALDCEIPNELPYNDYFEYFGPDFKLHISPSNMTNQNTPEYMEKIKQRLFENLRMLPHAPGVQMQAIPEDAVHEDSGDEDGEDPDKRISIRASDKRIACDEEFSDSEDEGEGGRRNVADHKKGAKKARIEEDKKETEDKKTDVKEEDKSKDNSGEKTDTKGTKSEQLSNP

Histone deacetylase 1 [5] = molecular target: T1, Histone deacetylase 1; assay: Inhibition of human recombinant HDAC1 expressed in baculovirus by using Boc-L-Lys(Ac)-AMC as substrate measured after 24 hrs by fluorescence based analysis
Histone deacetylase 8 [6] = molecular target: T4, Histone deacetylase 8 (Homo sapiens, UniProt Q9BY41); assay: Inhibition of human recombinant HDAC8 expressed in Escherichia coli BL21 (DE3) cells by using Boc-L-Lys(Ac)-AMC as substrate measured after 24 hrs by fluorescence based analysis
T4 sequence (Q9BY41 whole entry): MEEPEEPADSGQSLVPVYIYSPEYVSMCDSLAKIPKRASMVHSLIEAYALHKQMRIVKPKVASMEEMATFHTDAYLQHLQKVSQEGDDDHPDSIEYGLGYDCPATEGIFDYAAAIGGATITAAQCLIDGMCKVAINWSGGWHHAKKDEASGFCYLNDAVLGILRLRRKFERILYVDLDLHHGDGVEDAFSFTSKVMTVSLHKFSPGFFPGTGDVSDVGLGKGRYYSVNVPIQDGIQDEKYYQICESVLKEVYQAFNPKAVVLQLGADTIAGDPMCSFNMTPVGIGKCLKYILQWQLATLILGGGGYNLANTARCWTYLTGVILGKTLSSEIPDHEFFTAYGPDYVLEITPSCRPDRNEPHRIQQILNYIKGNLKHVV

Histone deacetylase 3 [7] = molecular target: T2, Histone deacetylase 3; assay: Inhibition of human recombinant HDAC3 expressed in baculovirus by using Boc-L-Lys(Ac)-AMC as substrate measured after 24 hrs by fluorescence based analysis
Histone deacetylase 2 [8] = molecular target: T3, Histone deacetylase 2; assay: Inhibition of human recombinant HDAC2 expressed in baculovirus by using Boc-L-Lys(Ac)-AMC as substrate measured after 24 hrs by fluorescence based analysis
Histone deacetylase 1 [9] = molecular target: T1, Histone deacetylase 1; assay: Inhibition of HDAC1 (unknown origin) using acetylated 7-amino-4-methylcoumarin (AMC) as peptide substrate measured after 20 mins by fluorescence based analysis
Histone deacetylase 3 [10] = molecular target: T2, Histone deacetylase 3; assay: Inhibition of HDAC3 (unknown origin) using acetylated 7-amino-4-methylcoumarin (AMC) as peptide substrate measured after 20 mins by fluorescence based analysis
Histone deacetylase 2 [11] = molecular target: T3, Histone deacetylase 2; assay: Inhibition of HDAC2 (unknown origin) using acetylated 7-amino-4-methylcoumarin (AMC) as peptide substrate measured after 20 mins by fluorescence based analysis
Histone deacetylase 1 [12] = molecular target: T1, Histone deacetylase 1; assay: Inhibition of HDAC1 (unknown origin) using Boc-Lys (Ac)-AMC as substrate measured after 30 mins by fluorescence based analysis
Histone deacetylase 3 [13] = molecular target: T2, Histone deacetylase 3; assay: Inhibition of human HDAC3 using human HeLa cell nuclear extract at 1 uM measured after 60 mins by fluorescence assay; type: subcellular, Nucleus
Histone deacetylase 1 [14] = molecular target: T1, Histone deacetylase 1; assay: Inhibition of human HDAC1 using human HeLa cell nuclear extract at 1 uM measured after 60 mins by fluorescence assay; type: subcellular, Nucleus
Histone deacetylase 2 [15] = molecular target: T3, Histone deacetylase 2; assay: Inhibition of human HDAC2 using human HeLa cell nuclear extract at 1 uM measured after 60 mins by fluorescence assay; type: subcellular, Nucleus
Histone deacetylase 2 [16] = molecular target: T3, Histone deacetylase 2; assay: Inhibition of human recombinant HDAC2 using (FAM)-labeled acetylated peptide substrate at 1 uM incubated for 17 hrs by fluorescence based analysis
Histone deacetylase 8 [17] = molecular target: T4, Histone deacetylase 8; assay: Inhibition of human recombinant HDAC8 using (FAM)-labeled acetylated peptide substrate at 1 uM incubated for 17 hrs by fluorescence based analysis
Histone deacetylase 1 [18] = molecular target: T1, Histone deacetylase 1; assay: Inhibition of human recombinant HDAC1 using (FAM)-labeled acetylated peptide substrate at 1 uM incubated for 17 hrs by fluorescence based analysis
[19] = molecular target: T5, Protein deacetylase HDAC6 (Homo sapiens, UniProt Q9UBN7); assay: Inhibition of human recombinant HDAC6 using (FAM)-labeled acetylated peptide substrate at 1 uM incubated for 17 hrs by fluorescence based analysis
T5 sequence (Q9UBN7 whole entry): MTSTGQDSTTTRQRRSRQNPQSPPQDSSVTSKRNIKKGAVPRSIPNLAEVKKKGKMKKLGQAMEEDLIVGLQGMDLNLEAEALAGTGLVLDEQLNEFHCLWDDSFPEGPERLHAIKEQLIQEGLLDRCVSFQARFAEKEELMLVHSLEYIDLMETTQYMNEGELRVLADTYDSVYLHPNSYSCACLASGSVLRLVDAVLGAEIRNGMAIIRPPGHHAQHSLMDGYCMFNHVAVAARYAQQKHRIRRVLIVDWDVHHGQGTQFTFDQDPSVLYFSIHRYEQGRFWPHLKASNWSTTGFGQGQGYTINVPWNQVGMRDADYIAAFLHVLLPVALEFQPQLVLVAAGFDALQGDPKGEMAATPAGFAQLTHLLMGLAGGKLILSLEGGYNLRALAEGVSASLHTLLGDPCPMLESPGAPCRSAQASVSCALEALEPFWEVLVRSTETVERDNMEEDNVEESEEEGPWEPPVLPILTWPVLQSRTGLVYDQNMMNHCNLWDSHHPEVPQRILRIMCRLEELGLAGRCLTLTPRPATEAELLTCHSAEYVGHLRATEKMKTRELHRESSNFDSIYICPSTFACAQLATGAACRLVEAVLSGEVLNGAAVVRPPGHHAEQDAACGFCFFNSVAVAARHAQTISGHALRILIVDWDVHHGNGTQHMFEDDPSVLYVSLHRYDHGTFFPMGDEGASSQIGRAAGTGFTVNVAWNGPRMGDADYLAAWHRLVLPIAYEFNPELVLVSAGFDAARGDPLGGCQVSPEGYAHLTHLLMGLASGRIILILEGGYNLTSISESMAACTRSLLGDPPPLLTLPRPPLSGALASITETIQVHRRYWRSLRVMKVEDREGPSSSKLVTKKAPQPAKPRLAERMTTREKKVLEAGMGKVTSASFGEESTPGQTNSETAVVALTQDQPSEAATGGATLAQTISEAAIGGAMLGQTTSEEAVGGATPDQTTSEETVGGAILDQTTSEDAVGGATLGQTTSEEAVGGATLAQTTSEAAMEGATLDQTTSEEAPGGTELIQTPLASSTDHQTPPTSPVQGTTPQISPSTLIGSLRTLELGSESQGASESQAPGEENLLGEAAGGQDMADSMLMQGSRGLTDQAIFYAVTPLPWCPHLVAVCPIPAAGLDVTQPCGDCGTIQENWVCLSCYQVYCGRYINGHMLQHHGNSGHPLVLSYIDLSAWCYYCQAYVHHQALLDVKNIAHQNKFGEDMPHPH

Histone deacetylase 8 [20] = molecular target: T4, Histone deacetylase 8; assay: Inhibition of HDAC8 (unknown origin)
Histone deacetylase 3 [21] = molecular target: T2, Histone deacetylase 3; assay: Inhibition of HDAC3 (unknown origin)

T1 sequence (Q13547 whole entry): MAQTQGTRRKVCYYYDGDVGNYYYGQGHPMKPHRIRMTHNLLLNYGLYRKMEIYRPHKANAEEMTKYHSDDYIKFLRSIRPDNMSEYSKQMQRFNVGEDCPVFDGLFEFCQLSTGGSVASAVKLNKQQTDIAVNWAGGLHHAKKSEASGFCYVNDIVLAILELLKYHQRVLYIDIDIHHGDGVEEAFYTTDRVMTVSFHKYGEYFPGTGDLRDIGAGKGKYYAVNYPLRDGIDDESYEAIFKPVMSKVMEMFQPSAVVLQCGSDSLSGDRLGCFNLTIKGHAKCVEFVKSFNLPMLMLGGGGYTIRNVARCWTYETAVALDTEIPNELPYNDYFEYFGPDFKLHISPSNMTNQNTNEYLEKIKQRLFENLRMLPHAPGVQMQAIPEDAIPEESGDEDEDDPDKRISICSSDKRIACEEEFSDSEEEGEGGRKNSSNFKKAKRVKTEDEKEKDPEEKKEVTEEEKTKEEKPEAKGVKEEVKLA

Structure (SMILES): O=C(NO)c1ccc(NC(=O)[C@@H](NC(=O)c2cccc(Br)c2)c2ccccc2)cc1
IC50 (Histone deacetylase 1 [1]): 11.8 nM
IC50 (Histone deacetylase): 13.7 nM
IC50 (Histone deacetylase 3 [2]): 8.5 nM

Structure (SMILES): Nc1ccccc1NC(=O)c1ccc(-c2cn(CCc3ccsc3)nn2)cc1
IC50 (Histone deacetylase 1 [3]): > 100000 nM
IC50 (Histone deacetylase 2 [4]): > 19 nM

Structure (SMILES): O=C(NO)c1ccc(NC(=O)[C@@H](NC(=O)c2ccc(Cl)cc2)c2ccccc2)cc1
IC50 (Histone deacetylase): 348.6 nM

Structure (SMILES): O=C(NO)c1ccc(NC(=O)[C@@H](NS(=O)(=O)c2cccc3ccccc23)c2ccccc2)cc1
IC50 (Histone deacetylase): 15.6 nM

Structure (SMILES): COc1ccc(CNCCCCCCC(=O)NO)cc1OC
IC50 (Histone deacetylase 1 [5]): 210 nM
IC50 (Histone deacetylase 8 [6]): 1800 nM
IC50 (Histone deacetylase 3 [7]): 180 nM
IC50 (Histone deacetylase 2 [8]): 1800 nM

Structure (SMILES): O=C(NNCCCc1ccccc1)c1ccc(Br)cc1
IC50 (Histone deacetylase 1 [9]): > 50000 nM
IC50 (Histone deacetylase 3 [10]): 24200 nM
IC50 (Histone deacetylase 2 [11]): > 50000 nM

Structure (SMILES): Cc1cccc(Cc2cn(CCCCCC(=O)NO)c3ccc(-c4c(C)noc4C)cc23)c1
IC50 (Histone deacetylase 3 [13]): 62 nM
IC50 (Histone deacetylase 1 [14]): 222 nM
IC50 (Histone deacetylase 2 [15]): 568 nM

Structure (SMILES): Nc1ccccc1NC(=O)CCCCCCC(=O)Nc1cccc(-c2cn(-c3ccccc3)nn2)c1
IC50 (Histone deacetylase 2 [16]): > 30000 nM
IC50 (Histone deacetylase 8 [17]): > 30000 nM
IC50 (Histone deacetylase 1 [18]): > 30000 nM
IC50 [19]: > 30000 nM

Structure (SMILES): O=C(NNCCCC1CCCC1)c1ccc(Br)cc1
IC50 (Histone deacetylase 1 [9]): > 50000 nM
IC50 (Histone deacetylase 3 [10]): > 50000 nM
IC50 (Histone deacetylase 2 [11]): > 50000 nM

Structure (SMILES): O=C(CCCCCCNCc1ccc(-c2ccccc2)s1)NO
IC50 (Histone deacetylase 1 [5]): 48 nM
IC50 (Histone deacetylase 8 [6]): 550 nM
IC50 (Histone deacetylase 3 [7]): 38 nM
IC50 (Histone deacetylase 2 [8]): 690 nM

Structure (SMILES): Cc1noc(C)c1-c1ccc2c(c1)c(Cc1cccc(C(F)(F)F)c1)cn2CCCCCCC(=O)NO
IC50 (Histone deacetylase 3 [13]): 13 nM
IC50 (Histone deacetylase 1 [14]): 31 nM
IC50 (Histone deacetylase 2 [15]): 79 nM

Structure (SMILES): Nc1ccccc1NC(=O)c1ccc(CNc2nc(-c3ccccc3)cs2)cc1
IC50 (Histone deacetylase 1 [3]): 930 nM
IC50 (Histone deacetylase 8 [20]): 4100 nM
IC50 (Histone deacetylase 2 [4]): 85 nM
IC50 (Histone deacetylase 3 [21]): 12 nM

Other lines, results leading:

IC50 (Histone deacetylase 1 [12]): 61 nM
Structure (SMILES): COC(=O)/C=C/c1ccc(OCCCCNc2cc3c([nH]c4ccccc43)c(-c3ccc(OC)cc3)n2)c(OC)c1

IC50 (Histone deacetylase 1 [1]): 24.7 nM
IC50 (Histone deacetylase): 9.7 nM
IC50 (Histone deacetylase 3 [2]): 24.4 nM
Structure (SMILES): CN(C)c1cccc2c(S(=O)(=O)N[C@H](C(=O)Nc3ccc(C(=O)NO)cc3)c3ccccc3)cccc12

IC50 (Histone deacetylase 1 [9]): > 50000 nM
IC50 (Histone deacetylase 3 [10]): > 50000 nM
IC50 (Histone deacetylase 2 [11]): > 50000 nM
Structure (SMILES): CCCCNNC(=O)c1ccccc1

IC50 (Histone deacetylase 1 [5]): 1100 nM
IC50 (Histone deacetylase 8 [6]): 5400 nM
IC50 (Histone deacetylase 3 [7]): 950 nM
IC50 (Histone deacetylase 2 [8]): 4200 nM
Structure (SMILES): O=C(CCCCCCN(Cc1ccc2ccccc2c1)Cc1ccc2ccccc2c1)NO

IC50 (Histone deacetylase 1 [5]): 61 nM
IC50 (Histone deacetylase 8 [6]): 620 nM
IC50 (Histone deacetylase 3 [7]): 25 nM
IC50 (Histone deacetylase 2 [8]): 260 nM
Structure (SMILES): O=C(CCCCCCNCc1cc2ccccc2[nH]1)NO

IC50 (Histone deacetylase 3 [13]): 62 nM
IC50 (Histone deacetylase 1 [14]): 314 nM
IC50 (Histone deacetylase 2 [15]): > 1000 nM
Structure (SMILES): Cc1ccccc1CCc1cn(CCCCCC(=O)NO)c2ccc(-c3c(C)noc3C)cc12

IC50 (Histone deacetylase 3 [13]): 17 nM
IC50 (Histone deacetylase 1 [14]): 259 nM
IC50 (Histone deacetylase 2 [15]): 946 nM
Structure (SMILES): Cc1noc(C)c1-c1ccc2c(c1)c(CCc1ccc(F)cc1)cn2CCCCCC(=O)NO
